Measurements: patent US8178668B2, “2-aminopyridine kinase inhibitors” (OSI Pharmaceuticals, LLC, priority 2008, dated 2012)
Where a name gives a salt, the structure may show the parent alone.

Legend:
[1] = molecular target: RON (human) (Homo sapiens, UniProt Q04912); test: RON kinase AlphaScreen assay (Km of ATP); assay type: biochemical; details: ATP at Km; at least duplicate experiments
Method in brief: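 Human RON phosphorylated biotinylated poly(Glu,Tyr) (200 ng/μL) at Km ATP in 50 mM HEPES pH 7.4, 12.5 mM MgCl2, 1% glycerol, 0.334 mM vanadate, 1% DMSO. Reaction ran 30 min at RT after enzyme addition. Product was detected by AlphaScreen with PT66 beads after 1 h.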

[2] = molecular target: MET (human) (Homo sapiens, UniProt P08581); test: MET kinase AlphaScreen assay (Km of ATP); assay type: biochemical; details: ATP at Km; at least duplicate experiments
Method in brief: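 Biotinylated poly(Glu,Tyr) (200 ng/μL) phosphorylated by MET with ATP at an enzyme-optimized level, in 50 mM HEPES pH 7.4 with Mg2+/Mn2+ and vanadate, 1% DMSO. Reaction runs 60 min at RT. PT66 AlphaScreen donor/acceptor beads are added and signal is read after 1 h.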

RON (human), sequence (Q04912 25-1400): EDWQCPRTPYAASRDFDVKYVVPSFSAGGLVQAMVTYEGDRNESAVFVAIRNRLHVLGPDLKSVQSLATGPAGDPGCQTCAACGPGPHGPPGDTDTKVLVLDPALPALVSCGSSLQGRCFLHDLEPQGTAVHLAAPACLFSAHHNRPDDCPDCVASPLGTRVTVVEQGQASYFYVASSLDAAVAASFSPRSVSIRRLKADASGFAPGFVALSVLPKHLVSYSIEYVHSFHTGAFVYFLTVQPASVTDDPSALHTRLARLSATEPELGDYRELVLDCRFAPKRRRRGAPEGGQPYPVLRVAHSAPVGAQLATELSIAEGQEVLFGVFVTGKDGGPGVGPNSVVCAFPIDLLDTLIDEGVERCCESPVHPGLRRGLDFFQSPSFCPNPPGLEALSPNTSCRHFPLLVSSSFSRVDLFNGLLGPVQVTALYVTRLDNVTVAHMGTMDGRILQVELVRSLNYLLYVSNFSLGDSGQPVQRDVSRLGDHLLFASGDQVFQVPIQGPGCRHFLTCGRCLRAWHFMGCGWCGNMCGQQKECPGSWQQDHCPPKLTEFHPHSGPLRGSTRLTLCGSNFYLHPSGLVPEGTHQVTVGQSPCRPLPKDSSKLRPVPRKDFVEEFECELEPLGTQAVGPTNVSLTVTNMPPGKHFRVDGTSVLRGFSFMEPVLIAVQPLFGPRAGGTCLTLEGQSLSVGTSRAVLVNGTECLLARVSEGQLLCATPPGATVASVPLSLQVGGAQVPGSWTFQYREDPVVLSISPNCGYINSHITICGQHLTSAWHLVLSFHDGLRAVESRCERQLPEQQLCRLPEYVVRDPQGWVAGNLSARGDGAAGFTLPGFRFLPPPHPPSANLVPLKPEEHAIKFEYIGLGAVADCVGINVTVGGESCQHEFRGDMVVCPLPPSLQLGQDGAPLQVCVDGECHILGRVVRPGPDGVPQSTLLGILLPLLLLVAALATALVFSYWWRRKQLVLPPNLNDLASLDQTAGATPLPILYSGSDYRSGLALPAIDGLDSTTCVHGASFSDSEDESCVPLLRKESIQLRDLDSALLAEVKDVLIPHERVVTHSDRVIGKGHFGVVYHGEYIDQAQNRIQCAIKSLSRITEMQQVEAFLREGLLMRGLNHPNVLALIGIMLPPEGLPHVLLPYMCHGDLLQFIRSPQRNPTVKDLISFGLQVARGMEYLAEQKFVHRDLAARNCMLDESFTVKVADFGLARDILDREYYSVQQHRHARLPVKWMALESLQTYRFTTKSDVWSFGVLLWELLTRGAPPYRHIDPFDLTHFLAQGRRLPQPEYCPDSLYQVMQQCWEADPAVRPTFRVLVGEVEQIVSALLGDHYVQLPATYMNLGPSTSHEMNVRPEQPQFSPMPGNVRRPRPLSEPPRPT
MET (human), sequence (P08581 25-1390): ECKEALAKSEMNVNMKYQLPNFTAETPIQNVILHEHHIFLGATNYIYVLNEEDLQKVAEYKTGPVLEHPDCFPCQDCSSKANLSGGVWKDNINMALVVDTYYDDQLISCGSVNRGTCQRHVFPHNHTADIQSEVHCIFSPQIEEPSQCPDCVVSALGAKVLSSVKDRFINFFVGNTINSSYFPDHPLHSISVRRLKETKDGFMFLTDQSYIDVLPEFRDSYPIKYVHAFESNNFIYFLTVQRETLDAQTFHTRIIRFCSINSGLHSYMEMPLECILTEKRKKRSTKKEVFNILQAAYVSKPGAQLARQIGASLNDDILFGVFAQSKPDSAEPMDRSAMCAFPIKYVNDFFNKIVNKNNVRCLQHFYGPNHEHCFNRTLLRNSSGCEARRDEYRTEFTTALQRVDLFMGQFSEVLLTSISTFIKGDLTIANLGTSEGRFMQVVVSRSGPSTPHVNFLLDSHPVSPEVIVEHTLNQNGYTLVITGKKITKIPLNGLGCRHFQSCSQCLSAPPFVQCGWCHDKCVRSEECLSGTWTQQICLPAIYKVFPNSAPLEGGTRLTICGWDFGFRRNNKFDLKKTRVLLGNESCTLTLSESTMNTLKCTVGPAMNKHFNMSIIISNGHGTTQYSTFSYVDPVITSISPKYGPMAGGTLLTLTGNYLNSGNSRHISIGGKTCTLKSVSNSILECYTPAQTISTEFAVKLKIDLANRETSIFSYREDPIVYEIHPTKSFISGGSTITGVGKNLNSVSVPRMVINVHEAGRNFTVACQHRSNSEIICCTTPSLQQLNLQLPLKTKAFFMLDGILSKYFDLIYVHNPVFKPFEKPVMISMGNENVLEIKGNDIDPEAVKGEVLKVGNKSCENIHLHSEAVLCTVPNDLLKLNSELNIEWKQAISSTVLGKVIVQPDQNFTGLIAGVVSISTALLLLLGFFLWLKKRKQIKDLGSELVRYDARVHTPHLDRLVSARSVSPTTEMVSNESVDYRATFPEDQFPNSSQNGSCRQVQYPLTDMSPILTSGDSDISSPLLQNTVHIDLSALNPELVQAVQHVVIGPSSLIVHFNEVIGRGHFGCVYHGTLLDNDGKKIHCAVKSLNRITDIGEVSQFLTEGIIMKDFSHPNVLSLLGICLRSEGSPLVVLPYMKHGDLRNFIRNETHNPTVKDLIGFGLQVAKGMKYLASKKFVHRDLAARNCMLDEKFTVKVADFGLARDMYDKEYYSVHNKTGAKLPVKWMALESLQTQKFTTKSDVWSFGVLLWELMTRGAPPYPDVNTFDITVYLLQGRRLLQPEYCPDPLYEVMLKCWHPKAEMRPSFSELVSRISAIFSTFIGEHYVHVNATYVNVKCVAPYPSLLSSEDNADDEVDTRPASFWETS

Structure (SMILES) | IC50 [1] [nM] | IC50 [2] [nM]
Nc1ncc(-c2cccc(C(=O)N[C@H]3CCCC[C@@H]3O)c2)cc1-c1nc2ccccc2s1 [Example 221, 3-(6-Amino-5-benzothiazol-2-ylpyridin-3-yl)-N-((1S,2S)-2-hydroxycyclohexyl)benzamide] | 1000 to 20000 | 1000 to 20000
Nc1ncc(-c2cccc(C(=O)N3CCC(O)C3)c2)cc1-c1nc2ccccc2s1 (stereo not shown) [Example 222, [3-(6-Amino-5-benzothiazol-2-ylpyridin-3-yl)phenyl]-(3-hydroxypyrrolidin-1-yl)methanone] | 1000 to 20000 | 1000 to 20000
Nc1ncc(-c2cccc(C(=O)NCCCn3ccnc3)c2)cc1-c1nc2ccccc2s1 [Example 223, 3-(6-Amino-5-benzothiazol-2-ylpyridin-3-yl)-N-(3-imidazol-1-ylpropyl)benzamide] | 1000 to 20000 | 1000 to 20000
CN(C)C1CCN(C(=O)c2cccc(-c3cnc(N)c(-c4nc5ccccc5s4)c3)c2)C1 (stereo not shown) [Example 224, [3-(6-Amino-5-benzothiazol-2-ylpyridin-3-yl)phenyl]-(3-dimethylaminopyrrolidin-1-yl)methanone] | 1000 to 20000 | 100 to 1000
Nc1ncc(-c2cccc(C(=O)NCCCN3CCOCC3)c2)cc1-c1nc2ccccc2s1 [Example 225, 3-(6-Amino-5-benzothiazol-2-ylpyridin-3-yl)-N-(3-morpholin-4-ylpropyl)benzamide] | 1000 to 20000 | 1000 to 20000
CN1CCCN(C(=O)c2cccc(-c3cnc(N)c(-c4nc5ccccc5s4)c3)c2)CC1 [Example 226, [3-(6-Amino-5-benzothiazol-2-ylpyridin-3-yl)phenyl]-(4-methyl-[1,4]diazepan-1-yl)methanone] | 1000 to 20000 | 100 to 1000
Nc1ncc(-c2cccc(C(=O)N3CCC(F)(F)C3)c2)cc1-c1nc2ccccc2s1 [Example 227, [3-(6-Amino-5-benzothiazol-2-ylpyridin-3-yl)phenyl]-(3,3-difluoropyrrolidin-1-yl)methanone] | 1000 to 20000 | 1000 to 20000
C[C@@H]1CN(C(=O)c2cccc(-c3cnc(N)c(-c4nc5ccccc5s4)c3)c2)C[C@H](C)N1C [Example 228, [3-(6-Amino-5-benzothiazol-2-ylpyridin-3-yl)phenyl]-(cis-3,4,5-trimethylpiperazin-1-yl)methanone] | 1000 to 20000 | 100 to 1000
Nc1ncc(-c2cc3ccccc3[nH]2)cc1-c1nc2ccccc2s1 [Example 229, 3-(1,3-Benzothiazol-2-yl)-5-(1H-indol-2-yl)pyridin-2-amine] | 1000 to 20000 | 1000 to 20000
Nc1ncc(C2=CCNCC2)cc1-c1nc2ccccc2s1 [Example 232, 5-(1,3-Benzothiazol-2-yl)-1′,2′,3′,6′-tetrahydro-3,4′-bipyridin-6-amine] | 1000 to 20000 | 100 to 1000
Nc1ncc(-c2ccc(OCC(=O)N3CCN(CCO)CC3)cc2)cc1-c1nc2ccccc2s1 [Example 246, 2-[4-(6-Amino-5-benzothiazol-2-yl-pyridin-3-yl)phenoxy]-1-[4-(2-hydroxyethyl)piperazin-1-yl]ethanone] | 1000 to 20000 | 100 to 1000
Nc1ncc(-c2cnn(C3CCNCC3)c2)cc1-c1nc2cccc(-c3cn[nH]c3)c2s1 [Example 247, 5-(1-Piperidin-4-yl-1H-pyrazol-4-yl)-3-[7-(1H-pyrazol-4-yl)benzothiazol-2-yl]pyridin-2-ylamine dihydrochloride] | 100 to 1000 | ≤ 100
Cn1cc(-c2cccc3nc(-c4cc(-c5cnn(C6CCNCC6)c5)cnc4N)sc23)cn1 [Example 248, 3-[7-(1-Methyl-1H-pyrazol-4-yl)benzothiazol-2-yl]-5-(1-piperidin-4-yl-1H-pyrazol-4-yl)pyridin-2-ylamine dihydrochloride] | 100 to 1000 | 100 to 1000
Nc1ncc(-c2cnn(C3CCNCC3)c2)cc1-c1nc2cccc(-c3ccc[nH]3)c2s1 [Example 249, 5-(1-Piperidin-4-yl-1H-pyrazol-4-yl)-3-[7-(1H-pyrrol-2-yl)benzothiazol-2-yl]pyridin-2-ylamine dihydrochloride] | 100 to 1000 | ≤ 100
Nc1ncc(-c2cnn(C3CCNCC3)c2)cc1-c1nc2cccc(-c3cccnc3)c2s1 [Example 250, 5-(1-Piperidin-4-yl-1H-pyrazol-4-yl)-3-(7-pyridin-3-ylbenzothiazol-2-yl)pyridin-2-ylamine dihydrochloride] | 100 to 1000 | ≤ 100
Nc1ncc(-c2cnn(C3CCNCC3)c2)cc1-c1nc2cccc(-c3cc[nH]c3)c2s1 [Example 251, 5-(1-Piperidin-4-yl-1H-pyrazol-4-yl)-3-[7-(1H-pyrrol-3-yl)benzothiazol-2-yl]pyridin-2-ylamine trifluoroacetate] | 100 to 1000 | 100 to 1000
Nc1ncc(-c2cnn(C3CCNCC3)c2)cc1-c1nc2ccc(F)cc2s1 [Example 252, 3-(6-Fluorobenzothiazol-2-yl)-5-(1-piperidin-4-yl-1H-pyrazol-4-yl)-pyridin-2-ylamine] | 100 to 1000 | 100 to 1000
Nc1ncc(-c2cnn(C3CCNCC3)c2)cc1-c1nc2ccc(Cl)cc2s1 [Example 253, 3-(6-Chlorobenzothiazol-2-yl)-5-(1-piperidin-4-yl-1H-pyrazol-4-yl)-pyridin-2-ylamine] | 100 to 1000 | 100 to 1000
Cc1ccc2nc(-c3cc(-c4cnn(C5CCNCC5)c4)cnc3N)sc2c1 [Example 254, 3-(6-Methylbenzothiazol-2-yl)-5-(1-piperidin-4-yl-1H-pyrazol-4-yl)-pyridin-2-ylamine] | 100 to 1000 | 100 to 1000
COc1ccc2nc(-c3cc(-c4cnn(C5CCNCC5)c4)cnc3N)sc2c1 [Example 255, 3-(6-Methoxybenzothiazol-2-yl)-5-(1-piperidin-4-yl-1H-pyrazol-4-yl)-pyridin-2-ylamine] | 100 to 1000 | 100 to 1000

Further lines, results first:

IC50 [1] [nM] | IC50 [2] [nM] | Structure (SMILES)
1000 to 20000 | 1000 to 20000 | Nc1ncc(-c2ccc[nH]2)cc1-c1nc2ccccc2s1 [Example 230, 3-(1,3-Benzothiazol-2-yl)-5-(1H-pyrrol-2-yl)pyridin-2-amine]
1000 to 20000 | 1000 to 20000 | CS(=O)(=O)Nc1ccc(-c2cnc(N)c(-c3nc4ccccc4s3)c2)cc1 [Example 231, N-4-[6-Amino-5-(1,3-benzothiazol-2-yl)pyridin-3-yl]phenylmethanesulfonamide]
> 20000 | 1000 to 20000 | Nc1ncc(-c2cccc(O)c2)cc1-c1nc2ccccc2s1 [Example 233, 3-[6-Amino-5-(1,3-benzothiazol-2-yl)pyridin-3-yl]phenol]
> 20000 | 1000 to 20000 | COC(=O)COc1cccc(-c2cnc(N)c(-c3nc4ccccc4s3)c2)c1 [Example 234, Methyl 3-[6-amino-5-(1,3-benzothiazol-2-yl)pyridin-3-yl]phenoxyacetate]
1000 to 20000 | 1000 to 20000 | Nc1ncc(-c2cccc(OCC(=O)O)c2)cc1-c1nc2ccccc2s1 [Example 235, [3-(6-Amino-5-benzothiazol-2-yl-pyridin-3-yl)-phenoxy]acetic acid]
1000 to 20000 | 1000 to 20000 | CCOC(=O)COc1ccc(-c2cnc(N)c(-c3nc4ccccc4s3)c2)cc1 [Example 236, Ethyl 4-[6-amino-5-(1,3-benzothiazol-2-yl)pyridin-3-yl]phenoxyacetate]
1000 to 20000 | 100 to 1000 | Nc1ncc(-c2ccc(OCC(=O)O)cc2)cc1-c1nc2ccccc2s1 [Example 237, 4-[6-Amino-5-(1,3-benzothiazol-2-yl)pyridin-3-yl]phenoxyacetic acid]
1000 to 20000 | 1000 to 20000 | CNC(=O)COc1ccc(-c2cnc(N)c(-c3nc4ccccc4s3)c2)cc1 [Example 238, 2-[4-(6-Amino-5-benzothiazol-2-ylpyridin-3-yl)-phenoxy]-N-methylacetamide]
1000 to 20000 | 1000 to 20000 | CN(C)C(=O)COc1ccc(-c2cnc(N)c(-c3nc4ccccc4s3)c2)cc1 [Example 239, 2-[4-(6-Amino-5-benzothiazol-2-ylpyridin-3-yl)-phenoxy]-N,N-dimethylacetamide]
1000 to 20000 | 1000 to 20000 | Nc1ncc(-c2ccc(OCC(=O)NCc3ccccc3)cc2)cc1-c1nc2ccccc2s1 [Example 240, 2-[4-(6-Amino-5-benzothiazol-2-ylpyridin-3-yl)-phenoxy]-N-benzylacetamide]
> 20000 | 1000 to 20000 | Nc1ncc(-c2ccc(OCC(=O)N3CCCC3)cc2)cc1-c1nc2ccccc2s1 [Example 241, 2-[4-(6-Amino-5-benzothiazol-2-ylpyridin-3-yl)phenoxy]-1-pyrrolidin-1-ylethanone]
1000 to 20000 | 1000 to 20000 | Nc1ncc(-c2ccc(OCC(=O)NCCCN3CCCC3=O)cc2)cc1-c1nc2ccccc2s1 [Example 242, 2-[4-(6-Amino-5-benzothiazol-2-ylpyridin-3-yl)-phenoxy]-N-[3-(2-oxopyrrolidin-1-yl)-propyl]acetamide]
> 20000 | 1000 to 20000 | Nc1ncc(-c2ccc(OCC(=O)NC3CCCCC3O)cc2)cc1-c1nc2ccccc2s1 (stereo not shown) [Example 243, 2-[4-(6-Amino-5-benzothiazol-2-ylpyridin-3-yl)phenoxy]-N-(2-hydroxycyclohexyl)acetamide]
> 20000 | 1000 to 20000 | Nc1ncc(-c2ccc(OCC(=O)N3CCOCC3)cc2)cc1-c1nc2ccccc2s1 [Example 244, 2-[4-(6-Amino-5-benzothiazol-2-ylpyridin-3-yl)phenoxy]-1-morpholin-4-ylethanone]
> 20000 | 1000 to 20000 | Nc1ncc(-c2ccc(OCC(=O)NCC3CCCCC3)cc2)cc1-c1nc2ccccc2s1 [Example 245, 2-[4-(6-Amino-5-benzothiazol-2-ylpyridin-3-yl)phenoxy]-N-cyclohexylmethylacetamide]
